Results published in patent publication US8734775B2, “Chemokine derived peptides that bind with chemokine receptor CXCR3 and uses for chronic wound and angiogenesis inhibition treatments” (University of Pittsburgh, priority 2011, dated 2014).

Tests used:
HMEC-1 cells = assay: Tube formation after pre-treatment with CXCR3-neutralizing antibody; assay type: cell-based, human
Procedure: To determine if the IP-10dp peptide is acting through the same signaling pathways as IP-10, an experiment was conducted using a CXCR3-neutralizing antibody (also referred to herein as CXCR3 Ab) to assess that antibody's impact upon IP-10dp's ability to block tube formation. HMEC-1 cells were grown, detached and re-suspended in serum-free media and all were pretreated with CXCR3 Ab (0.5 μg/ml) 30 minutes prior to the addition of VEGF (75 ng/ml), IP-10 (300 ng/ml), IP-10dp (10 μM) and/or Immunoglobulin G (or “IgG,” as control). The thus-treated cells (1×10^4 cells/well) were added to 24-well culture plates coated with growth factor reduced Matrigel and incubated for 24 hours, and endothelial tubes were allowed to form as described above. Images were obtained as above. […]
Quantification of the endothelial tubes formed was performed as above, using MetaMorph, with the data being shown in the graphs of FIG. 6B are of N=6 and normalized to no treatment (average±SEM), and with *P<0.05.

[1] = tested on: HMEC-1 cells transfected with CXCR3 siRNA; assay: Scratch assay in cells transfected with CXCR3 siRNA; assay type: cell-based, human; conditions: CXCR3 knockdown; procedure of Experiment 2
Procedure: In the various experiments described below, to the extent not otherwise noted, CXCR3 siRNA transfection was preformed according to the procedure as previously described by Koh et al. (“Methods in Enzymology,” 2008, vol 443, p. 84), and summarized briefly as follows. HMEC-1 cells were plated in 6 well tissue culture plate at 4.0×10^5 cells/well in complete MCDB131 media and incubated overnight. The cells were ˜75% confluent. The media was removed and replaced with serum free Opti-Mem and incubated for 30 minutes. Dharmafect #4 was added to Opti-Mem to a final concentration of 2.5% (final volume […]) then incubated for 5 minutes at room temp. In parallel, CXCR3 siRNA was diluted in Opti-Mem to a final concentration of […] then incubated for 5 minutes at room temp. CXCR3 siRNA was a pool of equal concentration from Sigma and Santa Cruz. The Dharmafect solution was added to the CXCR3 siRNA pool and incubated for 20 minutes at room temp. […]
To determine whether IP-10dp inhibits endothelial cell motility, a conventional “scratch assay” was performed. […] Images were taken at time zero and 24 hours, and the relative distance traveled by the cells into the a cellular area was determined using MetaMorph. The HMEC-1 culture images were analyzed for the ability of the cells to migrate into a denuded area over a 24 hour period in the presence or absence of VEGF165. […]

[2] = tested on: VEGF-induced newly formed vessels; assay: In vivo Matrigel plug assay, regression of newly formed vessels; parameters: species or system C57BL/6J mice; conditions: mice; injected into plug at days 10 and 12, examined day 17; IP-10 10 μg, IP-10dp 100 μg
Procedure: Further, to verify that IP-10dp is able to cause regression of newly formed vessels in vivo, parallel experiments were conducted on similar mice whereby GFR Matrigel supplemented with VEGF (200 ng/ml) was first injected into both the left and right side groins of mice (establishing a control location and a test location). After 10 days, the left side Matrigel plug was removed (control, n=6) and stained as above for histological examination, with the left side samples being used to establish the extent of new vessel invasion at 10 days. The remaining right side Matrigel plug in the mice was injected with either IP-10 (10 μg) or IP-10dp (100 μg) at days 10 and 12. Day 17, the right side Matrigel plugs were removed and stained for examination as above. FIG. 8D through FIG. 8G are color photographs of tissue samples, showing both 10× and 40× magnifications, taken from laboratory C57BL/6J mice. […]

PESKAIKNLLKAVSKEMSKRSP (IP-10dp; listed as Homo sapiens) [synthetic fragment of IP-10 comprising residues 78-98, the C-terminal α-helical domain]
tube formation inhibition after CXCR3 Ab pre-treatment (HMEC-1 cells; CXCR3 Ab 0.5 μg/ml 30 minutes before, IP-10 300 ng/ml, IP-10dp 10 μM): significantly blocked | effect on VEGF-driven tube formation when CXCR3 receptor neutralized (HMEC-1 cells; CXCR3 Ab 0.5 μg/ml, VEGF 75 ng/ml): unable to override the angiogenic signals from VEGF | inhibition of VEGF-induced motility in CXCR3 siRNA-transfected cells [1]: unable to inhibit VEGF-induced motility | regression of vessels compared to saline control [2]: significant regression of vessels
